# Data: patent US10711006B2, “Selective Bruton's tyrosine kinase inhibitor and use thereof” (HANGZHOU HERTZ PHARMACEUTICAL CO., LTD., priority 2016, dated 2020)
# Tests used:
# [1] = Oral pharmacokinetic experiment in SD rats; assay type: in vivo; conditions: mean n = 3
# Protocol: SD rats were used as experimental animals and were subjected to intragastric administration in a dose of 10 mg/kg and tail-vein intravenous injection in a dose of 2 mg/kg. The tail-vein blood sampling time points in the intragastric administration were 0.17, 0.33, 0.5, 1, 1.5, 2, 4, 6, 8, 12, and 24 hours; the blood sampling time points in the intravenous administration were 0.05, 0.1, 0.17, 0.5, 1, 2, 4, 6, 8, 12, and 24 hours. 0.3 ml of whole blood was taken, and 0.1 ml of plasma after centrifugation was taken and analyzed by LC-MS.
# [2] = system: human mantle cell lymphoma (MINO); experiment: In-vitro tumor cell proliferation inhibition (CCK-8), MINO; conditions: 72 h, read-out: Tumor cell proliferation inhibitory activity (IC50, μM) MINO
# Protocol: The in-vitro antitumor activity assay was carried out on the synthesized compound by using different solid tumors and leukemia cell lines:
# Cell lines: human lung cancer cell (A549), human mantle cell lymphoma (MINO), diffuse giant B-cell lymphoma (OCI-LY10), and human diffuse large B lymphoma (TMD-8).
# Preparation method of the drug: the drug was dissolved in DMSO to make a 10 mM stock solution, and then the stock solution was diluted in a certain ratio to obtain 5 different concentrations (test concentration 100×). In-vitro culture of tumor cells:
# The tumor cells A549, MINO, OCI-LY10, and TMD-8 were seeded in a 96-well plate at 4000 cells/200 μL/well and then incubated overnight at 37° C. in a 5% CO2 cell culture incubator. 2 μL of the compound was added to each well to final concentrations of 50 μM, 10 μM, 2 μM, 0.4 μM, and 0.08 μM and then incubated for 72 hours at 37° C. in a 5% CO2 cell incubator, with DMSO (2%) as a control group. […] Wells loaded with the corresponding amount of cell culture fluid the and CCK-8 solution but no cells were considered as blank controls. The absorbance (OD value) was measured at 450 nm using a microplate reader, and the obtained data was used to calculate IC50.
# [3] = system: arthritis induced by anti-collagen antibodies and lipopolysaccharides; experiment: Rheumatoid arthritis model induced by anti-collagen antibodies and lipopolysaccharides; assay type: in vivo, Balb/c mice
# Protocol: In Balb/c mice, arthritis was induced by administration of anti-collagen antibodies and lipopolysaccharides (Nandakumar et al., Am. J. Pathol. 2003, 163: 1827-1837).
# The specific method was as follows: On Day 0, female Balb/c mice were intravenously injected with anti-type II collagen ChemicomAb mixture in a dose of 100 mg/kg, and on Day 1, lipopolysaccharide was intraperitoneally injected in a dose of 1.25 mg/kg. From Day 2 to Day 12, Compounds 15a, 17a, 24a and 24e were orally administered once a day in a dose of 10 mg/kg. On Day 13 after abdominal anesthesia, […] of blood was taken from the femoral artery and centrifuged at 3000 r/min for 20 minutes, serum was taken to detect IL-1β with a test kit, and related tissue samples were observed.
# [4] = system: Mino subcutaneous xenograft tumor; experiment: In-vivo pharmacodynamic study on Mino subcutaneous xenograft tumor models; conditions: CB17 SCID mice, intragastric, twice a day
# Protocol: In CB17 SCID mice, 0.2 mL of cell suspension containing 5×10^6 Mino cells was subcutaneously inoculated into the right back of each mouse, and when the mean tumor volume reaches approximately 139.94 mm3 (day 26 after inoculation), group administration was started (intragastric administration, twice a day, 14 days in total). Animals were monitored daily for health and mortality, and tumor diameters were measured twice a week using vernier calipers to see if tumor growth could be inhibited, delayed, or cured.
# [5] = system: human diffuse large B lymphoma (TMD-8); experiment: In-vitro tumor cell proliferation inhibition (CCK-8), TMD-8; conditions: TMD8, 72 h, read-out: Tumor cell proliferation inhibitory activity (IC50, nM) TMD-8
# [6] = system: diffuse giant B-cell lymphoma (OCI-LY10); experiment: In-vitro tumor cell proliferation inhibition (CCK-8), OCI-LY10; conditions: Homo sapiens, OCI-Ly10, 72 h, read-out: Tumor cell proliferation inhibitory activity (IC50, nM) OCI-LY10
# BTK Kinase = BTK Kinase (Homo sapiens (Human), UniProt Q06187); experiment: In-vitro Btk kinase inhibitory activity assay; assay type: biochemical
# Chain of BTK Kinase (Q06187 whole entry): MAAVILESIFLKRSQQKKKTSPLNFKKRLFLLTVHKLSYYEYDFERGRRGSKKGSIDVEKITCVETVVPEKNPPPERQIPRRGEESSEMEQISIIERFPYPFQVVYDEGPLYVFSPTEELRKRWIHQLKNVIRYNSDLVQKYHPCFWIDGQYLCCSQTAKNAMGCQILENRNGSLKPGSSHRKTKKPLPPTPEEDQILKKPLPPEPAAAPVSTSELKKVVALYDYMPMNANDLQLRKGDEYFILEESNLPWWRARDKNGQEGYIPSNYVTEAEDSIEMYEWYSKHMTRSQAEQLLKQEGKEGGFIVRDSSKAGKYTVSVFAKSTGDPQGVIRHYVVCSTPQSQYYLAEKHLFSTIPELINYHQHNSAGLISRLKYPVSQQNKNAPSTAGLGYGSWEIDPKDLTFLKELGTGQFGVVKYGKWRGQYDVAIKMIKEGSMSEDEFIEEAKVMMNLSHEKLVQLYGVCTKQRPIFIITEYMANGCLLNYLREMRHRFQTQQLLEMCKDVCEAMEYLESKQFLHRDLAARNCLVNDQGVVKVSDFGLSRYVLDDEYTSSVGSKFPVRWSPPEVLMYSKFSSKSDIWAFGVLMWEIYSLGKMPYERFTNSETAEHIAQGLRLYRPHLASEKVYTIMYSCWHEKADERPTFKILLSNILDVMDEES
# Protocol: In-Vitro Btk Kinase Inhibitory Activity Assay for Compounds of the Present Invention:
# 10 μL of the 50× drug stock solution was added to a 96-well plate and then 90 μL of a 1× Kinase Buffer was added and the 96-well plate was shaken for 10 minutes on a shaker. From each well of the 96-well plate, 5 μL of the drug solution was taken and then transferred to a 384-well plate which was provided with 2 duplicate wells.
# Preparation of a 2.5× Kinase Buffer: an enzyme was added to the 1× kinase base buffer.
# Prepare a 2.5× oligopeptide solution: FAM-labeled oligopeptide and ATP were added to the 1× kinase base buffer.
# 10 μL of the 2.5× Kinase Buffer was added to the 384-well plate loaded with 5 μL of the drug solution and incubation was then carried out for 10 minutes at room temperature. 10 μL of the 2.5× oligopeptide solution was added to the 384-well plate and incubation was then carried out for 1 hour at 28° C. The reaction was stopped by adding 25 μL of a stop buffer. The readings were recorded and the inhibition rate of the compound on the enzyme was calculated. The IC50 of BTK kinase was calculated by fitting.
# [7] = system: human lung cancer cell (A549); experiment: In-vitro tumor cell proliferation inhibition (CCK-8), A549; conditions: A549, 72 h, read-out: Tumor cell proliferation inhibitory activity (IC50, μM) A549
# hERG potassium channel = hERG potassium channel (Homo sapiens (Human), UniProt Q12809); experiment: hERG potassium channel inhibitory activity, manual patch clamp in CHO cells; assay type: cell-based; conditions: CHO cells stably expressing hERG, whole-cell patch clamp
# Chain of hERG potassium channel (Q12809 whole entry): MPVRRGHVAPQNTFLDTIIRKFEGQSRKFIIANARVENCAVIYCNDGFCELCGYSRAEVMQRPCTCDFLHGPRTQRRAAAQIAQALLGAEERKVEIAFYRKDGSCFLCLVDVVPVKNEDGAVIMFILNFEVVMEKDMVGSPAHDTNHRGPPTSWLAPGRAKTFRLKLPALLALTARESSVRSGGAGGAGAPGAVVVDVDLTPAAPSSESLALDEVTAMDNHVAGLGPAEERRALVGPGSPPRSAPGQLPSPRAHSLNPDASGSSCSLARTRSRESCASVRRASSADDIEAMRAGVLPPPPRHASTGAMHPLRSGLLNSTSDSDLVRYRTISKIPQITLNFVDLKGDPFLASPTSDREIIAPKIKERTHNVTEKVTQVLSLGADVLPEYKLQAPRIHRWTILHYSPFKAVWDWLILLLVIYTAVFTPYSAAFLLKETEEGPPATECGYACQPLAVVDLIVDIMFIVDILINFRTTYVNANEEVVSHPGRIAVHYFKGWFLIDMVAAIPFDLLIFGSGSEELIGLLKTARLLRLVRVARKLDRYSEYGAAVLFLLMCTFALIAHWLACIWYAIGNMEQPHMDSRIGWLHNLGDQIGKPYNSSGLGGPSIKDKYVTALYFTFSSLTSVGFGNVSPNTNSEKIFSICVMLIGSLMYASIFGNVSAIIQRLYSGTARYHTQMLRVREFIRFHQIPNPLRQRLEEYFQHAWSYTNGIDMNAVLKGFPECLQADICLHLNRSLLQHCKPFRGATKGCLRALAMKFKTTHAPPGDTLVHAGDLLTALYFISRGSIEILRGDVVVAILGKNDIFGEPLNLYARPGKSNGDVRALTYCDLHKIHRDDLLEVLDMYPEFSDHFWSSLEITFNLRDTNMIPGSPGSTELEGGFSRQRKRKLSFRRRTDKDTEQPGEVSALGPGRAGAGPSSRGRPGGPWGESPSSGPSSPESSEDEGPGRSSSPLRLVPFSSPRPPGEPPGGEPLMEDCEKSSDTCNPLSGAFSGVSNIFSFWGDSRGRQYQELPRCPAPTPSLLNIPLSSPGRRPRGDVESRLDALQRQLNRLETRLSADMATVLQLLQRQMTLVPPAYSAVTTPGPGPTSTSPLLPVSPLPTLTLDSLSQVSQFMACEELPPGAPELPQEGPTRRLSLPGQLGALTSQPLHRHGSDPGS
# Protocol: The cells used in this experiment were CHO cell lines transfected with HergCdna and stably expressing Herg channels (supplied by Sophion Bioscience, Denmark). The cells were cultured in a medium containing the following components (all from Invitrogen): Ham's F12 medium, 10% (v/v) inactivated fetal bovine serum, 100 μg/ml hygromycin B, 100 μg/ml Geneticin. […] 24 to 48 hours before an electrophysiological experiment, CHO Herg cells were transferred to circular slides placed in the culture dishes and grow with the same culture liquid under the same culture conditions as above. The density of CHO Herg cells on each circular slide was required to reach such a value that most cells were independent and stand alone.
# 2. Treatment and Dilution of a Compound
# Before the test, the compound was first diluted with DMSO at gradient to make stock solutions with concentrations of 10, 3, 1, 0.3 and 0.1 Mm and the stock solutions were then diluted with extracellular fluid to a final Mm test concentration. Except that the DMSO concentration in the 30 Mm compound test solution was 0.3%, the final concentration of DMSO in each of the compound solutions with other concentrations was 0.1%. The test concentration of a positive control Cisapridewas 0.1 Mm. All compound solutions were conventionally sonicated and shaken for 5 to 10 minutes to ensure complete dissolution of the compound.
# 3. Electrophysiological Recording System and Data Analysis
# This experiment uses a manual patch clamp system (HEKA EPC-10 signal amplifier and digital conversion system, purchased from HEKA Electronics, Germany) for the recording of whole cell currents. The circular slides with CHO Herg cells growing on the surfaces were placed in an electrophysiological recording slot under an inverted microscope. The extracellular fluid was used for continuous perfusion in the recording slot (approximately lml per minute). The experimental procedure uses a conventional whole-cell patch clamp current recording technique. Unless otherwise stated, the experiment was carried out at regular room temperature ([…]). The cells were clamped at a voltage of −80 Mv. The cell clamp voltage was depolarized to +20 Mv to activate the Herg potassium channel, and 5 seconds later, it was clamped to −50 Mv to eliminate inactivation and generate tail current. The peak of the tail current was used as the value of the Herg current. After the hERG potassium current recorded in the above step was stabilized under the continuous extracellular fluid perfusion in the recording slot, the drug to be tested can be superimposed to the perfusion until the inhibitory effect of the drug on the hERG current reaches a steady state. Generally, the criterion for determine whether or not the stable state was reached was that the recent three consecutive current recording lines were coincident. After the steady state was reached, extracellular fluid perfusion was carried out for flushing until the hERG current returns to the magnitude before the drug was added. One cell may be used for testing one or more drugs, or multiple concentrations of the same drug, and flushing with extracellular fluid was carried out between tests of different drugs. Cisapride (purchased from Sigma) was used in the experiment as a positive control to ensure that the cells used were of normal quality. The test data was analyzed by data analysis software provided by HEKA Patchmaster, Microsoft Excel and Graphpad Prism.
# [8] = rat, plasma, oral (intragastric) 10 mg/kg
Compound,AUC0-C(ng/h/mL) ([1]; oral (intragastric) 10 mg/kg) [ng·h/mL],AUC0-t (ng/h/mL) ([1]; oral (intragastric) 10 mg/kg) [ng·h/mL],"bioavailability ([1]; rat, plasma, oral 10 mg/kg vs intravenous 2 mg/kg) [%]","Cmax [1, 8] [ng/mL]","Tmax [1, 8] [h]","half-life [1, 8] [h]",IC50 [2] [µM],IC50 [5] [nM],IC50 [6] [nM],IC50 (BTK Kinase) [nM],IC50 [7] [µM],"level of IL-1β in serum (in words) ([3]; 10 mg/kg orally once a day, versus model group)","IL-1β ([3]; serum on Day 13, 10 mg/kg orally once a day Day 2 to Day 12) [ng/L]","inflammatory cell infiltration, synovial hyperplasia, inflammatory granulation tissue formation, necrotic tissue ([3]; tissue samples after treatment, versus model group)",TGI*(14 days) (%) calculated on the basis of tumor volume [4] [%],TGI**(14 days) (%) calculated on the basis of tumor weight [4] [%],IC50 (hERG potassium channel) [nM]
"C=CC(=O)N1CC[C@@H](n2nc(-c3ccc(Oc4cccc(F)c4F)nc3F)c3c(N)ncnc32)C1 [Compound 24e, (R)-1-(3-(4-amino-3-(6-(2,3-difluorophenoxy)-2-fluoropyridin-3-yl)-1H-pyrazolo[3,4-d]pyrimidin-1-yl)pyrrolidin-1-yl)prop-2-en-1-one]",1620,1600,46.1,1440,0.25,3.57,8.98,7.13,4.02,1.8,1.93,significantly reduce,20.45 ± 5.1,significantly improved,68.04,62.16,
"CC/C=C/C(=O)N1CCC[C@@H](n2nc(-c3ccc(Oc4ccccc4)nc3)c3c(N)ncnc32)C1 [Compound 20a, (R)-1-(3-(4-amino-3-(6-phenoxypyridin-3-yl)-1H-pyrazolo[3,4-d]pyrimidin-1-yl)piperidin-1-yl) pent-2-en-1-one]",,,,,,,8.92,15.2,12.5,18.6,7.7,,,,,,14800
"C=CC(=O)N1CC[C@@H](n2nc(-c3ccc(Oc4ccccc4)nc3)c3c(N)ncnc32)C1 [Compound 23a, (R)-1-(3-(4-amino-3-(6-phenoxypyridin-3-yl)-1H-pyrazolo[3,4-d]pyrimidin-1-yl)pyrrolidin-1-yl)prop-2-en-1-one]",,,,,,,9.19,28.3,6.91,4.4,2.83,,,,,,18200
"C=CC(=O)N1CCC[C@@H](n2nc(-c3ccc(Oc4ccc(F)cc4)nc3)c3c(N)ncnc32)C1 [Compound 15b, (R)-1-(3-(4-amino-3-(6-(4-fluorophenoxypyridine)-3-yl)-1H-pyrazolo[3,4-d]pyrimidin-1-yl)piperidin-1-yl)prop-2-en-1-one]",,,,,,,8.19,2.37,3.58,9.5,2.88,,,,,,11600
"C=CC(=O)N1CCC[C@@H](n2nc(-c3ccc(Oc4ccccc4F)nc3)c3c(N)ncnc32)C1 [Compound 15d, (R)-1-(3-(4-amino-3-(6-(2-fluorophenoxypyridine)-3-yl)-1H-pyrazolo[3,4-d]pyrimidin-1-yl)piperidin-1-yl)prop-2-en-1-one]",,,,,,,9.15,3.83,5.12,7.5,5.12,,,,,,
C=CC(=O)N1CCC[C@@H](n2nc(-c3ccc(Oc4ccc(C)cc4)nc3)c3c(N)ncnc32)C1 [Compound 15i],,,,,,,8.35,4.99,3.19,6.5,8.21,,,,,,13500

# Stronger by IC50 [2], values ahead:
AUC0-C(ng/h/mL) ([1]; oral (intragastric) 10 mg/kg) [ng·h/mL],AUC0-t (ng/h/mL) ([1]; oral (intragastric) 10 mg/kg) [ng·h/mL],"bioavailability ([1]; rat, plasma, oral 10 mg/kg vs intravenous 2 mg/kg) [%]","Cmax [1, 8] [ng/mL]","Tmax [1, 8] [h]","half-life [1, 8] [h]",IC50 [2] [µM],IC50 [5] [nM],IC50 [6] [nM],IC50 (BTK Kinase) [nM],IC50 [7] [µM],Compound,"level of IL-1β in serum (in words) ([3]; 10 mg/kg orally once a day, versus model group)","IL-1β ([3]; serum on Day 13, 10 mg/kg orally once a day Day 2 to Day 12) [ng/L]","inflammatory cell infiltration, synovial hyperplasia, inflammatory granulation tissue formation, necrotic tissue ([3]; tissue samples after treatment, versus model group)",TGI*(14 days) (%) calculated on the basis of tumor volume [4] [%],TGI**(14 days) (%) calculated on the basis of tumor weight [4] [%],IC50 (hERG potassium channel) [nM]
,,,,,,7.12,10.2,13.6,5.3,4.52,"C=CC(=O)N1CCC[C@@H](n2nc(-c3ccc(Oc4ccccc4)cn3)c3c(N)ncnc32)C1 [Compound 19, (R)-1-(3-(4-amino-3-(5-phenoxypyridin-2-yl)-1H-pyrazolo[3,4-d]pyrimidin-1-yl)piperidin-1-yl)prop-2-en-1-one]",,,,,,10600
,,,,,,6.5,5.18,5.13,25.1,5.3,"CC#CC(=O)N1CC[C@@H](n2nc(-c3ccc(Oc4ccccc4)nc3)c3c(N)ncnc32)C1 [Compound 25a, (R)-1-(3-(4-amino-3-(6-phenoxypyridin-3-yl)-1H-pyrazolo[3,4-d]pyrimidin-1-yl)pyrrolidin-1-yl)but-2-yn-1-one]",,,,,,13600
,,,,,,6.23,4.12,2.23,8.6,2.06,"C=CC(=O)N1CCC[C@@H](n2nc(-c3ccc(Oc4cccc(F)c4)nc3)c3c(N)ncnc32)C1 [Compound 15c, (R)-1-(3-(4-amino-3-(6-(3-fluorophenoxypyridine)-3-yl)-1H-pyrazolo[3,4-d]pyrimidin-1-yl)piperidin-1-yl)prop-2-en-1-one]",,,,,,
